According to US8420823B2, “Long-chain fatty acyl elongase inhibitor comprising arylsulfonyl derivative as active ingredient” (MSD K.K., priority 2008, dated 2013):
Counter-ions that a name gives are not always drawn.

biological target: T1, human LCE (Homo sapiens, UniProt Q9H5J4); assay: LCE enzyme activity-inhibitory test; format: biochemical; conditions: [14C]-malonyl CoA / palmitoyl CoA substrate, 37° C., 90 minutes
T1 sequence (Q9H5J4 1-265): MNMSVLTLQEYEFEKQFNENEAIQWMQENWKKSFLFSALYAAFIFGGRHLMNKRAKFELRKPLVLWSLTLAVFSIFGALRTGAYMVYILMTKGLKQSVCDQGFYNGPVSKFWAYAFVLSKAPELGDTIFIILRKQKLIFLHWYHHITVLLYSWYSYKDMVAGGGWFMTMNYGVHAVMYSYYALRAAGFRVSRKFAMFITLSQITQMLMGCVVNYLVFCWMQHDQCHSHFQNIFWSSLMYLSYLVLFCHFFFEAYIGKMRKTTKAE
Procedure: Pharmacological Test Example 1 (LCE Enzyme Activity-inhibitory Test)
A test compound was dissolved in dimethyl sulfoxide (DMSO to be 10 mM), and then diluted with DMSO to prepare a 1000-fold concentrated solution of the test concentration. An improved Moon et al's method (J. Biol. Chem., Vol. 276, pp. 45358-45366, 2001) was employed for the LCE enzyme activity-inhibitor test. Concretely, the diluted compound was applied to a 96-well assay plate (Corning, 96-well assay block) in an amount of 1.0 μL/well; 50 μL of a phosphate buffer solution (100 mM potassium phosphate buffer, pH 6.5), and 25 μL of a substrate solution (100 mM potassium phosphate buffer (pH 6.5), 4.0 μM rotenone, 80 μM fatty acid-free bovine serum albumin, 160 μM palmitoyl CoA, 80 μM malonyl CoA, 3.5 μM [^14C]-malonyl CoA (1.92 GBq/mmol, by Amersham)) were added to each well; 25 μL of an enzyme solution (100 mM potassium phosphate buffer (pH 6.5), 100 μg/mL human LCE) was added thereto; the top of the plate was airtightly sealed up; and this was incubated with gently shaking and stirring at 37° C. for 90 minutes. Next, 100 μL of 5 M hydrochloric acid was added to each well, and the assay plate was stirred at room temperature for 5 minutes to stop the enzyme reaction with hydrolyzing the acyl CoA. Next, the enzyme reaction solution in each well was adsorbed by each well of a 96-well GF/C filter plate (Perkin Elmer Unifilter 96 GF/C); the individual wells were washed with water to remove the non-adsorbed malonyl CoA; and the GF/C filter plate was dried at 50° C. for 60 minutes. Next, 30 μL of a scintillator (Perkin Elmer Microscinti 0) was added to each well; then the top of the plate was sealed up; and the fixed [^14C] radioactivity was measured with a microplate scintillation counter (Perkin Elmer TopCount) to be the enzyme activity. The human LCE enzyme-inhibitory activity of the test compound was calculated, based on the radioactivity of the DMSO-added well with no test compound therein as a control.

Row | IC50 [µM] | Compound
1 | 0.053 | CC(C)c1ccc(NC(=O)c2cccc(S(=O)(=O)N3CCCC(C(N)=O)C3)c2)cc1 (stereo not shown) [Example 34, 1-[(3-{[(4-Isopropylphenyl)amino]carbonyl]phenyl)sulfonyl}piperidine-3-carboxamide]
2 | 0.081 | CC(C)c1ccc(NC(=O)c2cccc(S(=O)(=O)N3CCC[C@@H](O)C3)c2)cc1 [Example 36, 3-{[(3R)-3-hydroxypiperidin-1-yl]sulfonyl}-N-(4-isopropylphenyl)benzamide]
3 | 0.066 | CC(C)c1ccc(NC(=O)c2cccc(S(=O)(=O)N3CCCC(CO)C3)c2)cc1 (stereo not shown) [Example 37, 3-{[3-(hydroxymethyl)piperidin-1-yl]sulfonyl}-N-(4-isopropylphenyl)benzamide]
4 | 1 | CC(C)c1ccc(NC(=O)c2cccc(S(=O)(=O)NC3CCCCC3)c2)cc1 [Example 38, 3-[(Cyclohexylamino)sulfonyl]-N-(4-isopropylphenyl)benzamide]
5 | 5.2 | CC(C)c1ccc(NC(=O)c2cccc(S(=O)(=O)Nc3ccccc3)c2)cc1 [Example 39, 3-(Anilinosulfonyl)-N-(4-isopropylphenyl)benzamide]
6 | 8 | COC[C@H]1CCCN1S(=O)(=O)c1cccc(C(=O)Nc2ccc(C(C)C)cc2)c1 [Example 40, N-(4-Isopropylphenyl)-3-{[(2R)-2-(methoxymethyl)pyrrolidin-1-yl]sulfonyl}benzamide]
7 | 5.1 | COc1ccccc1NC(=O)c1cccc(S(=O)(=O)N2CCC[C@@H](O)C2)c1 [Example 41, 3-{[(3R)-3-hydroxypiperidin-1-yl]sulfonyl}-N-(2-methoxyphenyl)benzamide]
8 | 0.5 | COc1ccccc1NC(=O)c1cccc(S(=O)(=O)N2CCCC(CO)C2)c1 (stereo not shown) [Example 42, 3-{[3-(hydroxymethyl)piperidin-1-yl]sulfonyl}-N-(2-methoxyphenyl)benzamide]
9 | 0.53 | COc1ccccc1NC(=O)c1cccc(S(=O)(=O)N2CCCC(C(N)=O)C2)c1 (stereo not shown) [Example 43, 1-[(3-{[(2-methoxyphenyl)amino]carbonyl]phenyl)sulfonyl}piperidine-3-carboxamide]
10 | 15 | COc1ccc(NC(=O)c2cccc(S(=O)(=O)NCCCCC(=O)O)c2)cc1 [Example 44, 5-{[(3-{[(4-methoxyphenyl)amino]carbonyl}phenyl)sulfonyl]amino}pentanoic acid]
11 | 10 | COc1ccc(NC(=O)c2cccc(S(=O)(=O)NC(C)(C)C)c2)cc1 [Example 45, 3-[(Tert-butylamino)sulfonyl]-N-(4-methoxyphenyl)benzamide]
12 | 0.79 | COc1ccc(NC(=O)c2cccc(S(=O)(=O)N3CCCCC3)c2)cc1 [Example 46, N-(4-methoxyphenyl)-3-(piperidin-1-ylsulfonyl)benzamide]
13 | 0.31 | CCOC(=O)C1CCCN(S(=O)(=O)c2cccc(C(=O)Nc3ncccc3OC)c2)C1 (stereo not shown) [Example 55, Ethyl 1-[(3-{[(3-methoxypyridin-2-yl)amino]carbonyl}phenyl)sulfonyl]piperidine-3-carboxylate]
14 | 3.2 | COc1cccnc1NC(=O)c1cccc(S(=O)(=O)N2CCCC(C(=O)O)C2)c1 (stereo not shown) [Example 56, 1-[(3-{[(3-Methoxypyridin-2-yl)amino]carbonyl}phenyl)sulfonyl]piperidine-3-carboxylic acid]
15 | 0.83 | COc1cccnc1NC(=O)c1cccc(S(=O)(=O)N2CCCC(C(N)=O)C2)c1 (stereo not shown) [Example 57, 1-[(3-{[(3-methoxypyridin-2-yl)amino]carbonyl}phenyl)sulfonyl]piperidine-3-carboxamide]
16 | 0.11 | CC(C)Oc1ccc(NC(=O)c2cccc(S(=O)(=O)N3CCC[C@H](C(N)=O)C3)c2)nc1 [Example 59, (3S)-1-[(3-{[(5-isopropoxypyridin-2-yl)amino]carbonyl}phenyl)sulfonyl]piperidine-3-carboxamide]
17 | 3 | CC(C)Oc1ccc(NC(=O)c2cccc(S(=O)(=O)N3CCC[C@@H](C(N)=O)C3)c2)nc1 [Example 59′, (3R)-1-[(3-{[(5-isopropoxypyridin-2-yl)amino]carbonyl}phenyl)sulfonyl]piperidine-3-carboxamide]
18 | 1.1 | CNC(=O)C1CCCN(S(=O)(=O)c2cccc(C(=O)Nc3ncccc3OC)c2)C1 (stereo not shown) [Example 60, 1-[(3-{[(3-methoxypyridin-2-yl)amino]carbonyl}phenyl)sulfonyl]-N-methylpiperidine-3-carboxamide]
19 | 0.054 | COc1cccnc1NC(=O)c1cccc(S(=O)(=O)N2CCCC(C(=O)NCc3ccccc3)C2)c1 (stereo not shown) [Example 61, N-benzyl-1-[(3-{[(3-methoxypyridin-2-yl)amino]carbonyl}phenyl)sulfonyl]piperidine-3-carboxamide]
20 | 0.093 | COc1cccnc1NC(=O)c1cccc(S(=O)(=O)N2CCCC(C(=O)OCc3ccccc3)C2)c1 (stereo not shown) [Example 62, Benzyl 1-[(3-{[(3-methoxypyridin-2-yl)amino]carbonyl}phenyl)sulfonyl]piperidine-3-carboxylate]

Second part, the compound before the results:

Row | Compound | IC50 [µM]
21 | COc1cccnc1NC(=O)c1cccc(S(=O)(=O)N2CCOCC2)c1 [Example 47, N-(3-methoxypyridin-2-yl)-3-(morpholin-4-ylsulfonyl)benzamide] | 1.4
22 | COc1cccnc1NC(=O)c1cccc(S(=O)(=O)N2CCC[C@@H]2C)c1 [Example 48, N-(3-methoxypyridin-2-yl)-3-{[(2S)-2-methylpyrrolidin-1-yl]sulfonyl}benzamide] | 0.21
23 | COc1cccnc1NC(=O)c1cccc(S(=O)(=O)N2CC3CCC2C3)c1 (stereo not shown) [Example 49, 3-(2-Azabicyclo [2.2.1]hept-2-ylsulfonyl)-N-(3-methoxypyridin-2-yl)benzamide] | 0.067
24 | COc1cccnc1NC(=O)c1cccc(S(=O)(=O)N2CCCC(c3nc4ccccc4[nH]3)C2)c1 (stereo not shown) [Example 50, 3-{[3-(1H-benzimidazol-2-yl)piperidin-1-yl]sulfonyl}-N-(3-methoxypyridin-2-yl)benzamide] | 0.053
25 | COc1cccnc1NC(=O)c1cccc(S(=O)(=O)N2CC3CCC2CC3)c1 [Example 51, 3-(2-Azabicyclo[2.2.2]oct-2-ylsulfonyl)-N-(3-methoxypyridin-2-yl)benzamide] | 0.33
26 | COc1cccnc1NC(=O)c1cccc(S(=O)(=O)N2C3CCC2CC3)c1 [Example 52, 3-(7-Azabicyclo[2.2.1]hept-7-ylsulfonyl)-N-(3-methoxypyridin-2-yl)benzamide] | 0.93
27 | COc1cccnc1NC(=O)c1cccc(S(=O)(=O)N2C[C@H]3C[C@@H]2CO3)c1 [Example 53, N-(3-methoxypyridin-2-yl)-3-[(1R,4R)-2-oxa-5-azabicyclo[2.2.1]hept-5-ylsulfonyl]benzamide] | 7.6
28 | COc1cccnc1NC(=O)c1cccc(S(=O)(=O)N2C3CCCC2CC3)c1 [Example 54, 3-(8-Azabicyclo[3.2.1]oct-8-ylsulfonyl)-N-(3-methoxypyridin-2-yl)benzamide] | 1.6
29 | CC(C)Oc1ccc(NC(=O)c2cccc(S(=O)(=O)N3CCCC(C(N)=O)C3)c2)nc1 (stereo not shown) [Example 58, 1-[(3-{[(5-Isopropoxypyridin-2-yl)amino]carbonyl}phenyl)sulfonyl]piperidine-3-carboxamide] | 0.16
30 | CC(C)Oc1cc(NC(=O)c2cccc(S(=O)(=O)N3CCOCC3)c2)[nH]n1 [Example 63, 3-Isopropoxy-5-{[3-(morpholin-4-ylsulfonyl)benzoyl]amino}-1H-pyrazole hydrochloride] | 0.018
31 | CC(C)Oc1cc(NC(=O)c2cccc(S(=O)(=O)N3CCCC3C)c2)[nH]n1 (stereo not shown) [Example 64, 3-Isopropoxy-5-({3-[(2-methylpyrrolidin-1-yl)sulfonyl]benzoyl}amino)-1H-pyrazole hydrochloride] | 0.005
32 | CC(C)Oc1cc(NC(=O)c2cccc(S(=O)(=O)N3CCCC(CO)C3)c2)[nH]n1 (stereo not shown) [Example 65, 5-[(3-{[3-(hydroxymethyl)piperidin-1-yl]sulfonyl}benzoyl)amino]-3-isopropoxy-1H-pyrazole hydrochloride] | 0.0059
33 | CC(C)Oc1cc(NC(=O)c2cccc(S(=O)(=O)N3CCCC(O)C3)c2)[nH]n1 (stereo not shown) [Example 66, 5-({3-[(3-Hydroxypiperidin-1-yl)sulfonyl}benzoyl]amino)-3-isopropoxy-1H-pyrazole hydrochloride] | 0.028
34 | CC(C)Oc1cc(NC(=O)c2cccc(S(=O)(=O)N3CCC(F)CC3)c2)[nH]n1 [Example 67, 5-({3-[(4-fluoropiperidin-1-yl)sulfonyl]benzoyl}amino)-3-isopropoxy-1H-pyrazole hydrochloride] | 0.01
